In one data set the test system is Caco-2 cells. Format: in vitro ADME. Particulars: human, Caco-2, 118 µM. Here is the method: Bioavailability assays are generally carried out in one of two ways. In one type of assay, the chamber is loaded with cells (i.e., Caco-2 human intestinal epithelial cells) such that the volume of the cells is significant compared to the volume of the chamber (e.g., 1 million cells/mL), and a size exclusion experiment is carried out. (Hidalgo, et al. 1989). An aliquot of a drug mixture is injected through the chamber and the elution profile is recorded by the mass spectrometer detector. The mixture may contain a single drug or a mixture of drugs under investigation and two internal controls: The negative control compound (such as mannitol) is excluded from entering the cells; and the positive control compound (such as certain steroids) readily enters the cells. Compounds that are excluded from the cells are washed out of the ultrafiltration chamber faster and are detected first, while compounds that enter the cells are distributed into a larger volume within the chamber and require longer to elute. In this manner, quantitative bioavailability or absorption data may be determined. In another type of bioavailability assay, a monolayer of cells (i.e., Caco-2 cells) is grown on an ultrafiltration membrane, which is then mounted in the ultrafiltration chamber with the cells facing the interior of the chamber. […] Compounds that readily enter and pass through the cells are detected first. […]

The test system of data set [1] is rat liver microsomal cytochromes P450. Particulars: for extent of metabolism by cytochromes P450 indicated by high throughput assays: microsomes. As to the method:
Chlorpromazine is an antidepressant-drug that undergoes extensive hepatic metabolism. […] The area under the curve for unreacted chlorpromazine is proportional to the amount of chlorpromazine consumed during the on-line metabolism experiment.
Pentoxyresorufin (1 μg) was injected into the ultrafiltration chamber containing hepatic microsomes as described herein.
Microsomes may be prepared from any types of cells or tissues, which are obtained from any species including humans. For the examples cited, male or female Sprague-Dawley rats (180-200 g) were obtained from Sasco Inc. (Omaha, Nebr.). Microsomes were prepared from rat liver, and protein and cytochrome P450 concentrations were determined using standard procedures (1). […] This washing step may be accelerated by using a higher flow rate, but care should be taken to avoid excessive pressure and rupture of the ultrafiltration membrane.
The ultrafiltration chamber (FIG. 1B) was built in-house out of polyetheretherketone (PEEK) and contained a Teflon®-coated magnetic stirring bar and a Viton® O-ring, which formed a seal around the ultrafiltration membrane. […] Chromatography tubing and fittings were made from polyetheretherketone (PEEK, Upchurch Scientific, Oak Harbor, Wash.).
NADPH and drug substrates were purchased from Sigma Chemical Company (St. Louis, Mo. All solvents were HPLC grade. Into a mobile phase consisting of 50 mM anmmonium acetate, pH 7.4, and 0.1 mM NADPH at a flow rate of 70 μL/min, chlorpromazine (3 μg) in 50 μL buffer was injected into the ultrafiltration chamber. Protonated molecules of chlorpromazine, cofactor NADPH, and the microsomal metabolic products were recorded continuously using positive ion electrospray mass spectrometry. In another experiment, 1 μg of pentoxyresorufin was injected into the ultrafiltration chamber containing hepatic microsomes as described above. […] In some experiments, NADPH was injected simultaneously with substrate instead of being added to the mobile phase.
Typically, a wide mass range was scanned by the mass spectrometer in order to identify the major metabolites (if unknown). Once the major metabolites are known or if only the compounds injected into the first chamber need to be analyzed, selected ion monitoring mass spectrometry is used to follow the appearance of metabolites, monitor the consumption of NADPH, and/or monitor the profile of unreacted compound(s).
The transfer line between the ultrafiltration chamber and the mass spectrometer was flushed for 1 min, then mass spectra were recorded for 2 min.

Another data set concerns cytochrome P450 isozymes. Conditions: cited from earlier work.
In data set [2] the test system is rat liver microsomes containing cytochromes P450 and microsomal glutathione S-transferase.
From the text: Alternatively, reactive metabolites may be trapped as phase II conjugates such as glutathione adducts.
Glutathione adducts formed from reactive drugs or their activated metabolites in the ultrafiltrate may be trapped and concentrated on a trapping column and then analyzed using LC-MS or LC-MS-MS for identification of the metabolites and for the differentiation of isomeric products.

Regarding `CC(=O)Oc1ccccc1C(=O)O` [aspirin], in the data set on Caco-2 cells, the “relative elution rates aspirin/propranolol (ratio of slopes of ln [drug] vs. elution time)” value is reported as 1.6:1.
Regarding `CCCCCOc1ccc2nc3ccc(=O)cc-3oc2c1` [Pentoxyresorufin], in data set [1], the “metabolism in control without NADPH” value is recorded as “no metabolism occurred”.
With `C=C[C@H]1C[N@@]2CC[C@H]1C[C@@H]2[C@@H](O)c1ccnc2ccc(OC)cc12` [quinidine], in the data set on cytochrome P450 isozymes, the “effect on cytochrome P450 isozymes according to the literature” value is “inhibit the action of certain cytochrome P450 isozymes” and the “metabolism according to the literature” value is “not metabolized”. Besides, in data set [1], the “metabolites detected in high throughput metabolic screening” value (“metabolites detected” below) is “no metabolites” and the “extent of metabolism by cytochromes P450 indicated by high throughput assays” value (from here on “extent of metabolism”) is recorded as “not”.
Take `Cc1c[nH]c2ccccc12` [3-methylindole]: the glutathione adducts detected result in data set [2] is listed as “observed”.
Consider `CN(C)CCCN1c2ccccc2Sc2ccc(Cl)cc21` [chlorpromazine], for which the “metabolism according to the literature” value in the data set on cytochrome P450 isozymes is listed as “metabolized extensively”. In data set [1], the “metabolites detected” value was “observed” and the “extent of metabolism” value was “extensive metabolism”.
With `O=C1C[C@@H](c2ccc(O)cc2)Oc2cc(O)cc(O)c21` [naringenin], in the data set on cytochrome P450 isozymes, the “effect on cytochrome P450 isozymes according to the literature” value is on record as “inhibit the action of certain cytochrome P450 isozymes” and the “metabolism according to the literature” value is “not metabolized”. Moreover, in data set [1], the “metabolites detected” value is “no metabolites” and the “extent of metabolism” value is “not”.

Source of the values: patent US6995022B1, “Screening of xenobiotics and endogenous compounds for metabolic transformation, formation of toxic metabolites, and bioavailability” (Board of Trustees of the University of Illinois, priority 1998, dated 2006).
